Key:
[1] = In vitro microsomal stability study, human liver microsomes; type: in vitro ADME
Description: Freshly prepared 10 mM CH3CN stock solution of the test compound was pre-incubated at 37 °C for 15 min with mouse/human liver microsomes added 0.1 M Tris-HCl buffer (pH 7.4). The final concentration was 4.6 μM. After pre-incubation, the cofactors (NADPH, G6P, G6PDH, and MgCl2 pre-dissolved in 0.1 M Tris-HCl) were added to the incubation mixture and the incubation was continued at 37 °C for 1 h. At each time point (0, 5, 15, 30, and 60 min), 30 μL of the incubation mixture was diluted with 200 μL of cold CH3CN spiked with 200 nM of the internal standard, followed by centrifugation at 3300g for 15 min. The supernatant was further diluted with H2O (1:1) for analysis. The concentration of the test compound was quantified by LC/MS–MS on a Waters Acquity UPLC/MS TQD system consisting of TQD MS equipped with an ESI interface. The analyses were run on an Acquity UPLC BEH C18 (50 × 2.1 mm ID, particle size 1.7 μm) with a VanGuard BEH C18 pre-column (5 × 2.1 mm ID, particle size 1.7 μm) at 40 °C. For each compound, the appropriate mobile phase was chosen. ESI was applied in positive mode. The percentage of the test compound remaining at each time point relative to t = 0 was calculated. The t1/2 were determined by a one-phase decay equation using a nonlinear regression of the compound concentration versus time. […]

hAC = molecular target: T1, hAC (Homo sapiens, UniProt Q13510); assay: hAC LC/MS-based activity assay in SH-SY5Y cells; type: cell-based; parameters: host or cells: SH-SY5Y human neuroblastoma cells; conditions: 1, 2.5, 5, 10 μM for 3 h; 10 μM for 1, 3, 6 h
T1 sequence (Q13510 22-395): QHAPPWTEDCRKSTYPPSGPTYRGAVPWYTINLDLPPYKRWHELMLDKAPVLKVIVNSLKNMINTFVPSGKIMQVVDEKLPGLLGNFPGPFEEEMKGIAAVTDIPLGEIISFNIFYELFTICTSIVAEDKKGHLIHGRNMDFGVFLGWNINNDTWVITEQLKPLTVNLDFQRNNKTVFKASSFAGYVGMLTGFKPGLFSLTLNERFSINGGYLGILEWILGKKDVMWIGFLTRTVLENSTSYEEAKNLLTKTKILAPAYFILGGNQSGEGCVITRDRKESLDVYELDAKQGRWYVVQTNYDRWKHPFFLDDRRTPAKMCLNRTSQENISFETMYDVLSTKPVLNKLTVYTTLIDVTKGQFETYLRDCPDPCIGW
Description: SH-SY5Y cells were purchased from Sigma Aldrich (Italy) and cultured in DMEM containing 10% FBS at 37 °C and 5% CO2. Drugs were dissolved in DMSO (10 mM) and diluted in cell culture medium with reduced serum (1%) for cell treatments.
hAC activity measurement was performed as previously described.[59],[61] Total lysates from cells were diluted in assay buffer (100 mM sodium phosphate, 0.1% Nonidet P-40, 150 mM NaCl, 3 mM DTT, 100 mM sodium citrate, pH 4.5). Reactions were started by the addition of 50 μM N-lauroyl ceramide (Nu-Chek Prep, Elysian, MN) and carried out for 1 h at 37 °C. Reactions were stopped by the addition of a mixture of CHCl3/MeOH (2:1) spike with 11-lauroleic acid (1.0 nmol, NuChek Prep). The organic phases were collected, dried under N2, and analyzed by UPLC/MS (Acquity, Waters) in the negative-ion mode monitoring the reaction product (lauric acid, m/z: 199) using 11-lauroleic acid as the internal standard. Lipids were eluted on an Acquity UPLC BEH C18 column (50 mm length, 2.1 mm ID, 1.7 μm pore size, Waters) column at 0.5 mL/min for 1.5 min with a gradient of CH3CN and H2O, both containing 0.25% AcOH and 5 mM NH4OAc (70–100% CH3CN in 0.5 min, 100% CH3CN for 0.5 min, 70% CH3CN for 0.4 min). The column temperature was 40 °C. […] The [M – H]^− ion was monitored in the selected-ion monitoring mode (m/z values: lauric acid 199, 11-lauroleic acid 197.35). […]

CCCCCNC(=O)n1cc(-c2ccc(F)cc2C2CCN(C)CC2)oc1=O [Compound 32b, 5-[4-Fluoro-2-(1-methyl-4-piperidyl)phenyl]-2-oxo-N-pentyl-oxazole-3-carboxamide]
h-liver microsomes % compound remaining at 1 h ([1]; 1 h): 80% | half-life at 4.6 μM ([1]; pH 7.4, read-out: h-liver microsomal stability t1/2): > 1 h | hAC activity in SH-SY5Y cells (hAC): time-dependent reduction
